In this assay the target is T1, Motilin receptor (Oryctolagus cuniculus, UniProt G1T803).
T1 construct: homogenized in a 50 mM Tris solution (pH 7.4) to prepare a protein solution; from tissue; host or cells: rabbit duodenum (mucous membrane detached from the tunica muscularis, then homogenized)
Nature of the assay: Motilin receptor binding test (125I-labeled motilin). The note with it: rabbit duodenum tunica muscularis homogenate; 25 pM 125I-labeled motilin; 25° C., 120 minutes; test drug in DMSO (final 1%); read-out: IC50, the concentration of the test drug which reduces the specific binding capacity to 50%. How it is done: Motilin receptor binding test was carried out by the method shown below (see V. Bormans, et al., Regul, Peptides, 15, 143 (1986)). From a slaughtered rabbit was removed the duodenum, of which the mucous membrane was detached from the tunica muscularis and then homogenized in a 50 mM Tris solution (pH 7.4) to prepare a protein solution. After incubating 25 pM ^125 I-labeled motilin (available from Otsuka Assay Laboratory) and the protein solution at 25° C. for 120 minutes, radioactivity in the protein solution was measured with a γ-ray counter. The difference between the radioactivity observed in the case of non-addition of motilin and that observed in the case of addition of an excess (1×10^-7 M) of motilin was defined as the specific binding capacity. The efficacy of the sample was expressed as IC50, the concentration of the test drug which reduces the specific binding capacity to 50%. The test drug was dissolved in a DMSO solution and added to the protein solution (the final DMSO concentration: 1%).

T1 sequence (G1T803 1-400): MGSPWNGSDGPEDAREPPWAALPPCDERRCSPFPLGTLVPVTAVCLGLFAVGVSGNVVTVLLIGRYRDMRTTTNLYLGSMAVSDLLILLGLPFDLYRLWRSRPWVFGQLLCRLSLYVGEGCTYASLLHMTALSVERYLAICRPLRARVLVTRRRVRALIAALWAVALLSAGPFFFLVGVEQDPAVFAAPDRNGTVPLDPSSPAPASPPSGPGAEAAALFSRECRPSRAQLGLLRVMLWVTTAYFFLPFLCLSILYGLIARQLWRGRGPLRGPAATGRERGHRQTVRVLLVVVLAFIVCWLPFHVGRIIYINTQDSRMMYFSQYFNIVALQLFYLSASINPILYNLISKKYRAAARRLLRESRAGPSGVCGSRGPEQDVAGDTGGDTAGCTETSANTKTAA

In the case of `COC1(C)CC(OC2C(C)C(=O)OC(C)C(=O)C(C)C3=C(C)CC(C)(O3)C(OC3OC(C)CC(N(C)C)C3O)C2C)OC(C)C1O` (stereo not shown) [Compound 4], the IC50 worked out at 5.7 nM.
